We go through six compounds from article PMC6364417, “Kinase inhibitor library screening identifies synergistic drug combinations effective in sensitive and resistant melanoma cells” (Journal of Experimental & Clinical Cancer Research : CR, 2019).

Holding throughout (assay): Kinase inhibitor library screening, PrestoBlue cell viability, 1 or 10 μM, 72 h
The subject of data set [1] is 501Mel cells (parental). Particulars: 501Mel Parental, in %. Put shortly: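 Treatment: 72 h with inhibitor. Detection: PrestoBlue, plate reader. Output: viability as % untreated control. Replicates: duplicate minimum. Lines: parental plus Vemurafenib- or Dabrafenib-resistant derivatives.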
The test system of data set [2] is 501Mel-GP cells (Dabrafenib-resistant). The settings on record: 501Mel GP, in %.
Data set [3] has as its system 501Mel-XP cells (Vemurafenib-resistant). The settings on record: 501Mel XP, in %.
The subject of data set [4] is A375 cells (parental). The settings on record: A375 Parental.
Data set [5] deals with A375-GP cells (Dabrafenib-resistant). The settings on record: A375 GP.
Data set [6] concerns A375-XP cells (Vemurafenib-resistant). Particulars: A375 XP.
Data set [7] relates to IGR37 cells (parental). The settings on record: IGR37 Parental, in %.
Data set [8] relates to IGR37-GP cells (Dabrafenib-resistant). Particulars: IGR37 GP.
The test system of data set [9] is IGR37-XP cells (Vemurafenib-resistant). The settings on record: IGR37 XP.

SMILES strings stand for the structures.

For `C=CC(=O)Nc1cccc(Oc2nc(Nc3ccc(N4CCN(C)CC4)cc3)ncc2Cl)c1` [WZ3146], the “cell viability, 501Mel Parental, 10μΜ” value in [1] (10μΜ, 72 h) is 1.1. In addition, in data set [2] (1μΜ, 72 h), the “cell viability, 501Mel GP, 1μΜ” value came to 102.6. In addition, in [2] (10μΜ, 72 h), the “cell viability, 501Mel GP, 10μΜ” value came to 53.7. Besides, the “cell viability, 501Mel XP, 1μΜ” value in data set [3] (1μΜ, 72 h) is recorded as 78.6. Moreover, in data set [3] (10μΜ, 72 h), the “cell viability, 501Mel XP, 10μΜ” value is recorded as 0.0384. The “cell viability, A375 Parental, 1μΜ” value in [4] (1μΜ, 72 h, in %) is 87.2. Also, the “cell viability, A375 Parental, 10μΜ” value in [4] (10μΜ, 72 h, in %) is given as 30.7. For the same compound, the “cell viability, A375 GP, 1μΜ” value in data set [5] (1μΜ, 72 h, in %) amounted to 82.9. Besides, the “cell viability, A375 GP, 10μΜ” value in data set [5] (10μΜ, 72 h, in %) was 22.9. Moreover, the “cell viability, A375 XP, 1μΜ” value in data set [6] (1μΜ, 72 h, in %) was 94.3. Moreover, the “cell viability, A375 XP, 10μΜ” value in [6] (10μΜ, 72 h, in %) was determined as 20.1. Also, the “cell viability, IGR37 Parental, 1μΜ” value in data set [7] (1μΜ, 72 h) is on record as 96.7. Further, the “cell viability, IGR37 Parental, 10μΜ” value in data set [7] (10μΜ, 72 h) turned out to be 56.4. For the same compound, in data set [8] (10μΜ, 72 h), the cell viability, IGR37 GP, 10μΜ came out at 39%. In addition, in data set [8] (1μΜ, 72 h, in %), the “cell viability, IGR37 GP, 1μΜ” value was determined as 92.8. For the same compound, the cell viability, IGR37 XP, 10μΜ in [9] (10μΜ, 72 h) turned out to be 7%. Also, in data set [9] (1μΜ, 72 h, in %), the “cell viability, IGR37 XP, 1μΜ” value came out at 73.3.
Consider `COc1cccc2cc(-c3nc([C@H]4CC[C@H](C(=O)O)CC4)n4ncnc(N)c34)[nH]c12` [OSI-027], for which, in data set [1] (1μΜ, 72 h), the “Cell viability in kinase inhibitor library screening, 501Mel Parental, 1μΜ” value turned out to be 74.7. The “Cell viability in kinase inhibitor library screening, 501Mel Parental, 10μΜ” value in data set [1] (10μΜ, 72 h) was 14.4. The “Cell viability in kinase inhibitor library screening, 501Mel GP, 1μΜ” value in data set [2] (1μΜ, 72 h) turned out to be 59.2. Besides, in [2] (10μΜ, 72 h), the “Cell viability in kinase inhibitor library screening, 501Mel GP, 10μΜ” value was 13.9. Also, in [3] (1μΜ, 72 h), the “Cell viability in kinase inhibitor library screening, 501Mel XP, 1μΜ” value is given as 55.5. Besides, in [3] (10μΜ, 72 h), the “Cell viability in kinase inhibitor library screening, 501Mel XP, 10μΜ” value came out at 6.8. In [4] (10μΜ, 72 h), the “Cell viability in kinase inhibitor library screening, A375 Parental, 10μΜ” value was 24.3. Besides, in data set [4] (1μΜ, 72 h), the “Cell viability in kinase inhibitor library screening, A375 Parental, 1μΜ” value was 72.3. Further, the “Cell viability in kinase inhibitor library screening, A375 GP, 1μΜ” value in data set [5] (1μΜ, 72 h) is reported as 62.5. Moreover, in [5] (10μΜ, 72 h), the “Cell viability in kinase inhibitor library screening, A375 GP, 10μΜ” value is reported as 21.4. Moreover, the “Cell viability in kinase inhibitor library screening, A375 XP, 1μΜ” value in [6] (1μΜ, 72 h) was 55.5. Further, in data set [6] (10μΜ, 72 h), the “Cell viability in kinase inhibitor library screening, A375 XP, 10μΜ” value came to 19.1. Moreover, in data set [7] (1μΜ, 72 h), the “Cell viability in kinase inhibitor library screening, IGR37 Parental, 1μΜ” value was 84.3. The “Cell viability in kinase inhibitor library screening, IGR37 Parental, 10μΜ” value in [7] (10μΜ, 72 h) is given as 46.6. Moreover, the Cell viability in kinase inhibitor library screening, IGR37 GP, 10μΜ in data set [8] (10μΜ, 72 h) amounted to 40%. The “Cell viability in kinase inhibitor library screening, IGR37 GP, 1μΜ” value in data set [8] (1μΜ, 72 h, in %) was found to be 81.3. Further, the “Cell viability in kinase inhibitor library screening, IGR37 XP, 1μΜ” value in [9] (1μΜ, 72 h, in %) worked out at 72.2.
With `COc1cc(Nc2c(C#N)cnc3cc(OCCCN4CCN(C)CC4)c(OC)cc23)c(Cl)cc1Cl` [Bosutinib (SKI-606)], the “cell viability (kinase inhibitor library screening)” value in data set [1] (1μΜ) is 98.4; in data set [1] (10μΜ), 0.645; in data set [2] (1μΜ), 91.9; in data set [2] (10μΜ), -0.266; in data set [3] (1μΜ), 103.1; in [3] (10μΜ) it was -0.2. Further, the “cell viability (kinase inhibitor library screening)” value in data set [4] (1μΜ, in %) stood at 80.1; in data set [4] (10μΜ, in %) it was 39.3; in [5] (1μΜ, in %), 85.6; in [5] (10μΜ, in %), 32.7; in data set [6] (1μΜ, in %), 83.7; in data set [6] (10μΜ, in %) it was 30.5. Also, the “cell viability (kinase inhibitor library screening)” value in data set [7] (1μΜ) worked out at 97.3; in data set [7] (10μΜ), 1.8; in [8] (1μΜ, in %) it was 95.0; in [8] (10μΜ, in %) it was 20.7; in data set [9] (1μΜ, in %), 98.8; in data set [9] (10μΜ, in %), 4.2.
Turning to `COc1ncc(-c2ccc3nccc(-c4ccnnc4)c3c2)cc1NS(=O)(=O)c1ccc(F)cc1F` [GSK2126458], in [1] (1μΜ, 72 h), the “Cell viability in kinase inhibitor library screening, 501Mel Parental, 1μΜ” value is recorded as 3.1. Besides, the “Cell viability in kinase inhibitor library screening, 501Mel Parental, 10μΜ” value in data set [1] (10μΜ, 72 h) is recorded as 0.9. In addition, the “Cell viability in kinase inhibitor library screening, 501Mel GP, 1μΜ” value in data set [2] (1μΜ, 72 h) worked out at 6.0. In addition, in data set [2] (10μΜ, 72 h), the “Cell viability in kinase inhibitor library screening, 501Mel GP, 10μΜ” value was found to be 0.6. In [3] (1μΜ, 72 h), the “Cell viability in kinase inhibitor library screening, 501Mel XP, 1μΜ” value came out at 2.1. Also, the “Cell viability in kinase inhibitor library screening, 501Mel XP, 10μΜ” value in [3] (10μΜ, 72 h) amounted to 0.8. For the same compound, the “Cell viability in kinase inhibitor library screening, A375 Parental, 10μΜ” value in data set [4] (10μΜ, 72 h) worked out at 3.2. Moreover, the “Cell viability in kinase inhibitor library screening, A375 Parental, 1μΜ” value in data set [4] (1μΜ, 72 h) was 15.7. Also, the “Cell viability in kinase inhibitor library screening, A375 GP, 1μΜ” value in [5] (1μΜ, 72 h) is recorded as 14.4. Moreover, in [5] (10μΜ, 72 h), the “Cell viability in kinase inhibitor library screening, A375 GP, 10μΜ” value was 3.9. Further, in data set [6] (1μΜ, 72 h), the “Cell viability in kinase inhibitor library screening, A375 XP, 1μΜ” value is 13.7. In addition, the “Cell viability in kinase inhibitor library screening, A375 XP, 10μΜ” value in data set [6] (10μΜ, 72 h) is 2.8. The “Cell viability in kinase inhibitor library screening, IGR37 Parental, 1μΜ” value in data set [7] (1μΜ, 72 h) turned out to be 7.2. Also, in [7] (10μΜ, 72 h), the “Cell viability in kinase inhibitor library screening, IGR37 Parental, 10μΜ” value is on record as 0.469. In data set [8] (10μΜ, 72 h), the Cell viability in kinase inhibitor library screening, IGR37 GP, 10μΜ is 2.7%. Moreover, the “Cell viability in kinase inhibitor library screening, IGR37 GP, 1μΜ” value in data set [8] (1μΜ, 72 h, in %) came out at 9.1. Besides, the Cell viability in kinase inhibitor library screening, IGR37 XP, 10μΜ in [9] (10μΜ, 72 h) was found to be 1.1%. The “Cell viability in kinase inhibitor library screening, IGR37 XP, 1μΜ” value in data set [9] (1μΜ, 72 h, in %) came out at 7.6.
On to `Nc1nc(N)c2nc(-c3cccc(O)c3)cnc2n1` [TG 100713], for which the “Cell viability in kinase inhibitor library screening, 501Mel Parental, 1μΜ” value in data set [1] (1μΜ, 72 h) was 94.5. Moreover, the “Cell viability in kinase inhibitor library screening, 501Mel Parental, 10μΜ” value in [1] (10μΜ, 72 h) worked out at 56.1. Besides, in data set [2] (1μΜ, 72 h), the “Cell viability in kinase inhibitor library screening, 501Mel GP, 1μΜ” value is 98.4. Also, the “Cell viability in kinase inhibitor library screening, 501Mel GP, 10μΜ” value in data set [2] (10μΜ, 72 h) was determined as 36.6. For the same compound, the “Cell viability in kinase inhibitor library screening, 501Mel XP, 1μΜ” value in data set [3] (1μΜ, 72 h) is listed as 90.7. Further, the “Cell viability in kinase inhibitor library screening, 501Mel XP, 10μΜ” value in data set [3] (10μΜ, 72 h) was 26.9. The “Cell viability in kinase inhibitor library screening, A375 Parental, 10μΜ” value in data set [4] (10μΜ, 72 h) came to 43.8. Also, in data set [4] (1μΜ, 72 h), the “Cell viability in kinase inhibitor library screening, A375 Parental, 1μΜ” value was found to be 94.5. For the same compound, the “Cell viability in kinase inhibitor library screening, A375 GP, 1μΜ” value in data set [5] (1μΜ, 72 h) is listed as 94.1. Further, the “Cell viability in kinase inhibitor library screening, A375 GP, 10μΜ” value in [5] (10μΜ, 72 h) was determined as 37.7. Further, in data set [6] (1μΜ, 72 h), the “Cell viability in kinase inhibitor library screening, A375 XP, 1μΜ” value came out at 93.7. Further, in [6] (10μΜ, 72 h), the “Cell viability in kinase inhibitor library screening, A375 XP, 10μΜ” value was 40.5. The “Cell viability in kinase inhibitor library screening, IGR37 Parental, 10μΜ” value in data set [7] (10μΜ, 72 h) stood at 49.5. The Cell viability in kinase inhibitor library screening, IGR37 GP, 10μΜ in data set [8] (10μΜ, 72 h) amounted to 58.8%. In data set [8] (1μΜ, 72 h, in %), the “Cell viability in kinase inhibitor library screening, IGR37 GP, 1μΜ” value came out at 93.1. For the same compound, the Cell viability in kinase inhibitor library screening, IGR37 XP, 10μΜ in data set [9] (10μΜ, 72 h) is 21.2%. Moreover, in data set [9] (1μΜ, 72 h, in %), the “Cell viability in kinase inhibitor library screening, IGR37 XP, 1μΜ” value is listed as 97.8.
As for `COc1cc2/c(=N/c3ccc(Br)cc3F)nc[nH]c2cc1OCC1CCN(C)CC1` [Vandetanib (Zactima)], the “cell viability (kinase inhibitor library screening)” value in [1] (1μΜ) is recorded as 98.8; in data set [1] (10μΜ), 0.4; in [2] (10μΜ) it was 0.0201; in data set [3] (1μΜ), 89.6; in data set [3] (10μΜ), -0.445; in data set [4] (1μΜ, in %), 98.6. Besides, the “cell viability (kinase inhibitor library screening)” value amounted to 48.0 in data set [4] (10μΜ, in %); 98.8 in [5] (1μΜ, in %); 19.2 in data set [5] (10μΜ, in %); 103.0 in data set [6] (1μΜ, in %); 39.3 in data set [6] (10μΜ, in %); 96.5 in data set [7] (1μΜ). For the same compound, the “cell viability (kinase inhibitor library screening)” value in data set [7] (10μΜ) is listed as 11.2; in data set [8] (1μΜ, in %) it was 93.4; in [8] (10μΜ, in %), 31.3; in [9] (1μΜ, in %), 94.5; in data set [9] (10μΜ, in %), 3.2.
